Reference: PubChem BioAssay AID1963849 (Molecular Pharmacology Branch, DTP, NCI, 2024)
Several values for one entry are separate records, joined by “and”; a condition that tells them apart may be missing. Equal values may be shown once.

System: 299254-011-R-J1-PDC complex spheroid viability
Assay: Anticancer human tumor 299254-011-R-J1-PDC patient-derived melanoma cell line growth inhibition [POLQ]
Conditions: for viability, T/C: stronger effect = lower value
Method: Multicellular complex tumor spheroid response to Polymerase (POL) inhibitors (novobiocin, ART-558, RP6685) in combination with a variety of drugs and investigational agents in selected tumor cell lines
The POL inhibitors (novobiocin, ART-558, and RP6685) were evaluated both individually and in combination with standard of care and investigational anticancer small molecules within a complex spheroid model of solid tumors. . Complex spheroids include a stromal component modeled by human endothelial cells (HUVEC) and fibroblasts modeled by human mesenchymal stem cells (MSCs). The concentration ranges selected for each drug and investigational agent were based upon clinically achievable concentrations if the clinical Cmax of the agent was known.
Compounds. The drugs and investigational agents: novobiocin (NSC847541), ART-558 (NSC835418), RP-6685 (NSC848927), peposertib (NSC802822), ceralasertib (NSC780249), elimusertib (NSC800525), camonsertib (NSC841442), AZD-1390 (NSC803789), olaparib (NSC753686), talazoparib (NSC767125), rucaparib (NSC756644), sotorasib (NSC818433), MRTX-1133 (NSC836407), SN-38 (NSC673596), topotecan (NSC609699), epotoside (NSC141540), doxorubicin (NSC123127), gemcitabine (NSC613327), 5-fluorouracil (NSC19893), paclitaxel (NSC125973), vemurafenib (NSC761431), MSA-2 (NSC828583), SN-011 (NSC837082), adavosertib (NSC754352), prexasertib (NSC758257), carboplatin (NSC241240) and oxaliplatin (NSC266046), were obtained from the National Cancer Institute (NCI) Developmental Therapeutics Program Chemical Repository (21). The FDA-approved anticancer drug set is available from the Developmental Therapeutics Program at https://dtp.cancer.gov/organization/dscb/obtaining/. […] The stock solutions were prepared in dimethyl sulfoxide (DMSO, Sigma-Aldrich, St. Louis, MO, cat. D2650), except for the platinum compounds which were prepared in saline (Quality Biological, Gaithersburg, MD, cat. 114-055-101), at 800-fold the tested concentration and stored at -70 degrees C prior to their use. All drugs and investigational agents were tested over a range starting from a high concentration at or near the clinical Cmax and decreasing in half-log increments. If the clinical Cmax for an agent had not been determined, the highest concentration tested was 10 microM, except for SN-38, which was tested at a high concentration of 1 microM.
Cell Culture. All cells were maintained in an incubator at 37 degrees C and 5% CO2 with 95% humidity. The PDC lines were cultured according to standard operating procedures established by the NCI PDMR (https://pdmr.cancer.gov). Table 3 of the manuscript, lists the cell lines along with the number of the three cell types plated to form the mct-spheroids and media for tumor cell growth. After thawing, all PDC lines, except 997537-175-T-J1-PDC and 415267-285-R-J2-PDC, were cultured in Matrigel-coated flasks prepared with a working solution of 1X Ham's F-12 nutrient mix, without supplementation (Thermo Fisher Scientific, cat. 11765054), 100 U/mL penicillin-streptomycin (Thermo Fisher Scientific, cat. 15140122), and 2.5% Matrigel (Corning Inc., Corning, NY, cat. 354248) for the first three passages. The two PDC lines 997537-175-T-J1-PDC and 415267-285-R-J2-PDC were cultured on uncoated flasks. The 857933-349-R-J2-PDC line was cultured in 6C/Colon 1B media containing advanced DMEM/F-12 (Thermo Fisher Scientific, cat. 12634028), 10 mM HEPES (Thermo Fisher Scientific, cat. 15630080), 1X GlutaMAX supplement (Thermo Fisher Scientific, cat. 35050061), 0.1 mg/mL primocin (InvivoGen, San Diego, CA, cat. ant-pm-2), 10% defined fetal bovine serum, heat inactivated (HyClone Laboratories Inc., Logan, UT, cat. SH30070.03HI), 50% L-WRN conditioned media (ATCC, cat. CRL-3276), 1.25 mM N-Acetyl-L-cysteine (Sigma-Aldrich, cat. A9165), 10 mM nicotinamide (Sigma-Aldrich, cat. N0636), 1X B-27 supplement (Thermo Fisher Scientific, cat. 17504044), 1X N-2 supplement (Thermo Fisher Scientific, cat. […]
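Also: spheroids exposed to drugs for one week before measurement.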
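For viability, T/C in this document: percent viability relative to DMSO vehicle control taken as 100%.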

## C=CCn1c(=O)c2cnc(Nc3ccc(N4CCN(C)CC4)cc3)nc2n1-c1cccc(C(C)(C)O)n1
Compound 0.00316 µM
  viability, T/C: 101% and 90.2% and 103%
Compound 0.01 µM
  viability, T/C: 98.3% and 97.1% and 94.1%
Compound 0.0316 µM
  viability, T/C: 106% and 114% and 110%
Compound 0.1 µM
  viability, T/C: 115% and 104% and 105%
Compound 0.316 µM
  viability, T/C: 83.5% and 95.6% and 103%
Compound 1 µM
  viability, T/C: 79.1% and 78.9% and 58.3%
Curve of compound
  IC50: > 1 µM

## Cc1cccc(N(C)C(=O)C2C(O)CCN2c2nc(C)cc(C(F)(F)F)c2C#N)c1 (stereo not drawn)
Compound 0.0316 µM
  viability, T/C: 102% [middle of 13 runs]
Compound 0.1 µM
  viability, T/C: 103% [middle of 13 runs]
Compound 0.316 µM
  viability, T/C: 102% [middle of 13 runs]
Compound 1 µM
  viability, T/C: 103% [middle of 13 runs]
Compound 3.16 µM
  viability, T/C: 97.3% [middle of 13 runs]
Compound alone, run of 11/27/2023
  IC50: > 10 µM
Compound alone, run of 12/05/2023
  IC50: > 10 µM

## CC1COCCN1c1cc(C2(S(C)(=N)=O)CC2)nc(-c2ccnc3[nH]ccc23)n1 (stereo not drawn)
Compound 0.0316 µM
  viability, T/C: 92.2% and 108% and 93.8%
Compound 0.1 µM
  viability, T/C: 101% and 108% and 94.5%
Compound 0.316 µM
  viability, T/C: 106% and 104% and 111%
Compound 1 µM
  viability, T/C: 85.5% and 84.5% and 95%
Compound 3.16 µM
  viability, T/C: 57.9% and 60.5% and 65.8%
Compound 10 µM
  viability, T/C: 41.8% and 43.3% and 37.2%
Curve of compound
  IC50: 5.43 µM and 6.33 µM and 5.97 µM

## CC[C@@]1(O)C(=O)OCc2c1cc1n(c2=O)Cc2cc3c(CN(C)C)c(O)ccc3nc2-1 + Nc1ccc(C#CCN(C(=O)Cc2ncc(C(F)(F)F)cc2C(F)(F)F)c2ccc(F)cc2)nn1
Curve of first compound, second compound 0.0316 µM
  IC50: > 0.1 µM
Curve of first compound, second compound 0.1 µM
  IC50: > 0.1 µM
Curve of first compound, second compound 0.316 µM
  IC50: > 0.1 µM
Curve of first compound, second compound 1 µM
  IC50: > 0.1 µM
Curve of first compound, second compound 3.16 µM
  IC50: > 0.1 µM
Curve of first compound, second compound 10 µM
  IC50: > 0.1 µM
Second compound 0.0316 µM, first compound 0.000316 µM
  viability, T/C: 133%
Second compound 0.0316 µM, first compound 0.001 µM
  viability, T/C: 112%
Second compound 0.0316 µM, first compound 0.00316 µM
  viability, T/C: 108%
Second compound 0.0316 µM, first compound 0.01 µM
  viability, T/C: 101%
Second compound 0.0316 µM, first compound 0.0316 µM
  viability, T/C: 88.5%
Second compound 0.0316 µM, first compound 0.1 µM
  viability, T/C: 77.8%
Second compound 0.1 µM, first compound 0.000316 µM
  viability, T/C: 111%
Second compound 0.1 µM, first compound 0.001 µM
  viability, T/C: 107%
Second compound 0.1 µM, first compound 0.00316 µM
  viability, T/C: 105%
Second compound 0.1 µM, first compound 0.01 µM
  viability, T/C: 94.7%
Second compound 0.1 µM, first compound 0.0316 µM
  viability, T/C: 94.8%
Second compound 0.1 µM, first compound 0.1 µM
  viability, T/C: 84.6%
Second compound 0.316 µM, first compound 0.000316 µM
  viability, T/C: 106%
Second compound 0.316 µM, first compound 0.001 µM
  viability, T/C: 102%
Second compound 0.316 µM, first compound 0.00316 µM
  viability, T/C: 86.7%
Second compound 0.316 µM, first compound 0.01 µM
  viability, T/C: 103%
Second compound 0.316 µM, first compound 0.0316 µM
  viability, T/C: 112%
Second compound 0.316 µM, first compound 0.1 µM
  viability, T/C: 92.9%
Second compound 1 µM, first compound 0.000316 µM
  viability, T/C: 99.6%
Second compound 1 µM, first compound 0.001 µM
  viability, T/C: 106%
Second compound 1 µM, first compound 0.00316 µM
  viability, T/C: 107%
Second compound 1 µM, first compound 0.01 µM
  viability, T/C: 111%
Second compound 1 µM, first compound 0.0316 µM
  viability, T/C: 109%
Second compound 1 µM, first compound 0.1 µM
  viability, T/C: 96%
Second compound 3.16 µM, first compound 0.000316 µM
  viability, T/C: 94.2%
Second compound 3.16 µM, first compound 0.001 µM
  viability, T/C: 112%
Second compound 3.16 µM, first compound 0.00316 µM
  viability, T/C: 95%
Second compound 3.16 µM, first compound 0.01 µM
  viability, T/C: 96.9%
Second compound 3.16 µM, first compound 0.0316 µM
  viability, T/C: 92.2%
Second compound 3.16 µM, first compound 0.1 µM
  viability, T/C: 96.6%
Second compound 10 µM, first compound 0.000316 µM
  viability, T/C: 102%
Second compound 10 µM, first compound 0.001 µM
  viability, T/C: 103%
Second compound 10 µM, first compound 0.00316 µM
  viability, T/C: 95%
Second compound 10 µM, first compound 0.01 µM
  viability, T/C: 94.2%
Second compound 10 µM, first compound 0.0316 µM
  viability, T/C: 99.6%
Second compound 10 µM, first compound 0.1 µM
  viability, T/C: 68.5%
